Usually IC50 stands for the concentration needed to halve the response being measured.

Test [1] deals with dopamine uptake, bovine striatal membrane. The conditions noted are these: in vitro; cited from earlier work.
The test system of test [2] is serum corticosteroids. As to the kind of experiment: Serum corticosterone. The class given is in vivo, Wistar rats. The conditions noted are these: 0.3 mg/kg s.c., 1 hour; control 7 ± 1; * statistically significant. Here is the method: (§1) The following protocol was employed. 150-200 g. Wistar rats were given 0.3 mg/kg subcutaneously of (±)-4-di-n-propylamino-6-substituted-1,3,4,5-tetrahydrobenz[c,d]indole.Then, 60 minutes later each rat was decapitated and the hypothalamus and striatum were dissected out and extracted. The amounts of homovanillic acid (HVA) and 3,4-dihydroxyphenylacetic acid (DOPAC) in the striatum and of 5-hydroxyindoleacetic acid (5HIAA) in the hypothalamus were measured by high-performance liquid chromatography, using electrochemical detection. Serum corticosteroids were also measured. In the table, columns 1 and 2 give the substitution pattern in the compounds of formula IV, columns 3-5, the 5HT or dopamine metabolite concentrations, and column 6, the serum corticosteroids.
(§2) Compounds were injected at 0.3 mg/kg s.c. 1 hour before rats were killed.

The target in test [3] is ^3 H-serotonin (^3 H-5HT) receptor binding, rat cerebral cortex membranes. Briefly: Receptor binding, inhibition of specific ^3 H-5HT (tritiated serotonin) binding. Details: species or system male Wistar rats. The conditions noted are these: 15 min at 37°, pH 7.4, 2-3 nM ^3 H-serotonin, read-out: ^3 H-Ligand-IC50, ^3 H-5HT.
The target of test [4] is T1, ^3 H-spiperone receptor binding, rat cerebral cortex membranes (Rattus norvegicus, UniProt P14842).
T1 construct: The cerebral cortex was dissected out and then homogenized and centrifuged; from tissue; host or cells: cerebral cortex membranes of male Wistar rats
As to the kind of experiment: Receptor binding, inhibition of specific ^3 H-spiperone binding. More on the design: species or system male Wistar rats. The conditions noted are these: 15 min at 37°, pH 7.4, 0.6-0.7 nM ^3 H-spiperone, read-out: ^3 H-Ligand-IC50, ^3 H-SPIP.
Method: The cerebral cortex was dissected out and then homogenized and centrifuged according to the method described by Nelson and coworkers Mol. Pharmacol., 14, 983-995 (1978), using preincubation in buffer without added monoamine oxidase inhibitor in order to eliminate endogenous serotonin. For receptor binding, each sample contained 300-400 μg. of membrane protein and 10 μM pargyline in addition to the ^3 H-ligand in 1 ml. of 0.05 M Tris buffer, pH=7.4. The assay of serotonin binding was done following the method of Bennett and Snyder, Mol. Pharmacol., 12, 373-389 (1976), and that for tritiated spiperone according to Peroutka and Snyder, Mol. Pharmacol. 16 687-699 (1979). The samples were incubated for 15 minutes at 37° and were then filtered through GF/C glass fiber filter pads using a Brandel M-24 cell harvester modified for receptor binding. After two 5 ml. rinses, the filter discs were put into scintillation vials and counted in 10 ml. of Amersham PCS scintillation fluid. Nonspecific binding of ^3 H-serotonin (^3 H-5HT) was determined in the presence of 10^-5 M serotonin and of ^3 H-spiperone in the presence of 10^-6 M LSD. Specific binding was calculated as the difference between total binding with no added nonradioactive compound and the nonspecific binding.

The test system of test [5] is dopamine metabolites in striatum. Briefly: Changes in dopamine metabolites (DOPAC, HVA) in striatum. It counts as in vivo, Wistar rats. The conditions noted are these: 0.3 mg/kg s.c., 1 hour, * statistically significant; for Dopamine Metabolites In Striatum, HVA: control 4.24 ± .27; for Dopamine Metabolites In Striatum, DOPAC: control 5.58 ± .38. Here is the method:
(§3) Secondly, as a measure of central serotonin agonist activity, the decrease of serotonin metabolites in brain was measured. Also the measure of dopamine agonist activity was indicated by changes in dopamine metabolites.
as §1, §2

The subject of test [6] is serotonin turnover in brain (5-HTP accumulation). Briefly: 5-HTP accumulation in hypothalamus after decarboxylase block by m-hydroxybenzylhydrazine (serotonin turnover). The class given is in vivo, Wistar rats. The procedure:
Thirdly, as a measure of central serotonin agonist activity, the test rats received (±)-4-di-n-propylamino-6-methoxy-1,3,4,5-tetrahydrobenz[c,d]indole. The decrease of serotonin turnover in brain was measured as a function of 5-hydroxytryptophane (5-HTP) accumulation when the decarboxylation of 5-HTP is blocked by m-hydroxybenzylhydrazine, using the above protocol, except that thirty minutes after injection of the drug, m-hydroxybenzylhydrazine was injected at 100 mg./kg. i.p. Then, 40 minutes later each rat was decapitated, the hypothalamus dissected out and extracted. The amount of 5-HTP in each extract were measured by high-performance liquid chromatography, using electrochemical detection. In normal rats, 5-HTP brain levels are so low as to be virtually undetectable. Thus, the control group received the same dose of m-hydroxybenzylhydrazine as the test rats but no drug.

Test [7] concerns serotonin metabolites in brain (5HIAA in hypothalamus). As to the kind of experiment: Decrease of serotonin metabolite (5HIAA) in hypothalamus. It counts as in vivo, Wistar rats. The following applies: 0.3 mg/kg s.c., 1 hour; control 2.59 ± .11; * statistically significant. The procedure: as §3, §1, §2
Test [8] concerns serotonin. The conditions noted are these: Harris and Uhle; cited from earlier work.

T1 sequence (P14842 whole entry): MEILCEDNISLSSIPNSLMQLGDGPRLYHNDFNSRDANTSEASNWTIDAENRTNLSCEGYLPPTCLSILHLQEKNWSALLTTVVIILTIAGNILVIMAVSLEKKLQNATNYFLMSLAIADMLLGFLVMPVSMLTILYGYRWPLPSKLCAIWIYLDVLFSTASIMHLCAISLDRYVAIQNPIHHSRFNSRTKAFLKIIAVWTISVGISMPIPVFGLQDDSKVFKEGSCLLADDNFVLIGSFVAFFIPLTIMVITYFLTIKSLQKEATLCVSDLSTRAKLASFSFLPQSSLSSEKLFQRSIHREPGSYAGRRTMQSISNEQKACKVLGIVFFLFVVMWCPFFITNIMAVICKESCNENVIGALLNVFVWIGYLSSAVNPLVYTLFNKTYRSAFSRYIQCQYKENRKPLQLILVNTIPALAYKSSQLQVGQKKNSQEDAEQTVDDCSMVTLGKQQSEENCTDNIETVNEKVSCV

For the compound `CCCN(CCC)C1Cc2cccc3[nH]cc(c23)C1` (racemic) [(±)-4-di-n-propylamino-1,3,4-5-tetrahydrobenz[c,d]indole], the “selective dopamine agonist, action in inhibiting dopamine uptake” value in test [1] was “selective dopamine agonist”.

In the case of `CCCN(CCC)C1Cc2c[nH]c3ccc(OC)c(c23)C1` (racemic) [(±)-4-di-n-propylamino-6-methoxy-1,3,4,5-tetrahydrobenz[c,d]indole], the “Serum Corticosterone” value in test [2] stood at 48 ± 2 MCG/100 ML. In addition, the IC50 in test [3] was 50 nM; in test [4], 950 nM. Also, the “Dopamine Metabolites In Striatum, HVA” value in test [5] is on record as 2.43 ± .18 NMoles/G. Also, the “Dopamine Metabolites In Striatum, DOPAC” value in test [5] is reported as 4.61 ± .10 NMoles/G. In addition, the “5HTP Level in Nanomoles of Hypothalamus ± S.E.” value in test [6] (0.03 mg/kg, m-hydroxybenzylhydrazine 100 mg/kg i.p., zero dose 1.81 ± 0.11) stood at 1.72 ± 0.07 Nanomoles; in test [6] (0.10 mg/kg, m-hydroxybenzylhydrazine 100 mg/kg i.p., zero dose 1.81 ± 0.11, * P < .05), 1.16 ± 0.05 Nanomoles; in test [6] (0.30 mg/kg, m-hydroxybenzylhydrazine 100 mg/kg i.p., zero dose 1.81 ± 0.11, * P < .05), 0.97 ± 0.03 Nanomoles; in test [6] (ip, 0.01 mg/kg) it was 1.85 ± 0.06 Nanomoles. The 5HTP accumulation result in test [6] (certain dose levels, hypothalamus) is “significantly decreased 5HTP accumulation”. For the same compound, the “5HIAA In Hypothalamus” value in test [7] is 1.51 ± .05 NMoles/G.

Take `COc1ccc2[nH]cc3c2c1CC(N(C)C)C3` (racemic) [(±)-4-dimethylamino-6-methoxy-1,3,4,5-tetrahydrobenz[c,d]indole]: the “Serum Corticosterone” value in test [2] turned out to be 41 ± 4 MCG/100 ML. Moreover, the IC50 in test [3] was found to be 70 nM. In addition, the IC50 in test [4] was determined as 1490 nM. For the same compound, in test [5], the “Dopamine Metabolites In Striatum, HVA” value is listed as 4.68 ± .21 NMoles/G and the “Dopamine Metabolites In Striatum, DOPAC” value is 7.15 ± .23 NMoles/G. Also, the “5HIAA In Hypothalamus” value in test [7] is 1.69 ± .07 NMoles/G.

On to `CC(=O)NC1Cc2c[nH]c3cccc(c23)C1=O` (stereo not shown) [4-acetylamino-5-oxo derivative], for which the serotonin antagonism entry in test [8] is on record as “one exception”.
